The source made the active and inactive calls.
How the values were obtained:
Escherichia coli = assay: microbe, parasite or virus in culture
[1] = target: T1, Alkaline phosphatase, tissue-nonspecific isozyme (Homo sapiens, UniProt P05186); assay: TNAP enzyme activators, dose response, selectivity assay for human IAP activator project, biochemical, TNAP isozyme, human IAP uHTS hits (AID 488886); type: functional;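 also: potency of compounds raising TNAP activity as a selectivity check on IAP activators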
T1 sequence (P05186 whole entry): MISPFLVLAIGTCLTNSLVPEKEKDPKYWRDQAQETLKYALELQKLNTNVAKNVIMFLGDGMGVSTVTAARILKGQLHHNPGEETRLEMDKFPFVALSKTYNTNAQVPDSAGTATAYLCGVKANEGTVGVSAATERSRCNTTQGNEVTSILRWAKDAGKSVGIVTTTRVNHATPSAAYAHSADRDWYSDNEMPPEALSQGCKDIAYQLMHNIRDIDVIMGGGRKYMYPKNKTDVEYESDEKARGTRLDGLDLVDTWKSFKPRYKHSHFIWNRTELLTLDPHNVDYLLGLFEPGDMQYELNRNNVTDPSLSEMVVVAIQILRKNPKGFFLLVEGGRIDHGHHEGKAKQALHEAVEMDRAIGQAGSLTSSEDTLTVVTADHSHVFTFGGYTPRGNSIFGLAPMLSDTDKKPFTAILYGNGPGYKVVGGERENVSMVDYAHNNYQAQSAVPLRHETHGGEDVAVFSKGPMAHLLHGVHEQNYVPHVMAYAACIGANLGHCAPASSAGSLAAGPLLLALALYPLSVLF

[2] = target: T2, Intestinal-type alkaline phosphatase (Homo sapiens, UniProt P09923); assay: human IAP activators, dose response, biochemical, luminescent, uHTS hits, set 2 (AID 488817); type: functional;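 also: potency of activators that raise enzyme activity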
[3] = target: T2, Intestinal-type alkaline phosphatase; assay: human intestinal alkaline phosphatase activators, dose response, biochemical, luminescence, uHTS hits (AID 463120); type: functional
[4] = target: Intestinal-type alkaline phosphatase (Mus musculus, UniProt P24822); assay: PubChem AID 488874; type: functional
HEK293 [5] = assay: cytotoxicity in HEK293T NF-kB-Luc cells, SAR follow-up, cytotoxicity control for NF-kB activator project, cell-based, resazurin fluorescence (AID 493251); type: functional; conditions: Homo sapiens
Jurkat = assay: SAR Analysis of small molecule inhibitors of […] specific antigen receptor-induced NF-kB activation in a Jurkat cell line using a luminescence assay - Set 3. [Related pubchem assays (depositor defined):AID435022, AID435025, AID465]; type: functional, cell-based; conditions: Homo sapiens
HEK293 [6] = assay: SAR Analysis of small molecule inhibitors of B-cell specific antigen receptor-induced NF-kB activation in a HEK-293T cell line using a luminescence assay - Set 2. [Related pubchem assays (depositor defined):AID435022, AID435025, AID489021]; type: functional, cell-based; conditions: Homo sapiens
Cytochrome P450 1A2 = target: T3, Cytochrome P450 1A2 (Homo sapiens, UniProt P05177);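 also: PubChem cytochrome P450 panel assay, CYP1A2 panel member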
T3 sequence (P05177 whole entry): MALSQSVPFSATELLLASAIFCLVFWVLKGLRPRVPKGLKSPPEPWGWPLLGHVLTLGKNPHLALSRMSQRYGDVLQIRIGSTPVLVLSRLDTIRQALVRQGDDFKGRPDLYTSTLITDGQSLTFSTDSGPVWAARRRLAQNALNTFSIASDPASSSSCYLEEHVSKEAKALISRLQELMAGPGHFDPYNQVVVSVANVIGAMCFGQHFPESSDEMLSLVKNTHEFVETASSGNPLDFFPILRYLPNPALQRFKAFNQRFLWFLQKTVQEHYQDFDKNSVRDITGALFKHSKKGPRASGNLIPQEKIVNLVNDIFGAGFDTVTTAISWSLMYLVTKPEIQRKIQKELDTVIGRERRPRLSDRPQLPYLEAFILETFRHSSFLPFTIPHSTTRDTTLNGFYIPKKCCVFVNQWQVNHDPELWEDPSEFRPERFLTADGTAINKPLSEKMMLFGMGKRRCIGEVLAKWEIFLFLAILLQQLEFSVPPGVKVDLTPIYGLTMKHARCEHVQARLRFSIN

Cytochrome P450 3A4 = Cytochrome P450 3A4 (Homo sapiens, UniProt P08684);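 also: CYP3A4 tested as one member of a cytochrome P450 panel screen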
Cytochrome P450 2C19 = Cytochrome P450 2C19 (Homo sapiens, UniProt P33261); assay: Cytochrome panel assay with activity outcomes. Panel member name: p450-cyp2c19 Compounds with AC50 equal or less than 10 uM are considered active; type: functional; conditions: read-out: AC50
[7] = target: T4, DNA repair protein RAD52 homolog (Homo sapiens, UniProt P43351); type: functional, biochemical
T4 sequence (P43351 whole entry): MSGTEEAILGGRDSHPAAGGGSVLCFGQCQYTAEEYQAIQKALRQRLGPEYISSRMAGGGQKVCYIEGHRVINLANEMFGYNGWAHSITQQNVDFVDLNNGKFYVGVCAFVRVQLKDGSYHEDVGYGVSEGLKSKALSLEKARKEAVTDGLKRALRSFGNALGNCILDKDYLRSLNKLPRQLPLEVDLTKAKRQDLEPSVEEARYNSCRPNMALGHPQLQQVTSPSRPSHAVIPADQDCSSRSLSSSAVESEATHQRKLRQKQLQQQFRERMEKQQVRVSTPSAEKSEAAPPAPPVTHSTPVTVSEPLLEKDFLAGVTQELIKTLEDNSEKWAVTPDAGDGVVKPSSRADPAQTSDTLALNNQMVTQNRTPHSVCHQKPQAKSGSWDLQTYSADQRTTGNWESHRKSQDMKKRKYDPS

[8] = target: T5, DNA repair and recombination protein RAD54-like (Homo sapiens, UniProt Q92698); assay: inhibitors of human RAD54 branch migration, confirmation, biochemical, fluorescence, cherry-picked samples, dose series (AID 651657); type: functional
T5 sequence (Q92698 whole entry): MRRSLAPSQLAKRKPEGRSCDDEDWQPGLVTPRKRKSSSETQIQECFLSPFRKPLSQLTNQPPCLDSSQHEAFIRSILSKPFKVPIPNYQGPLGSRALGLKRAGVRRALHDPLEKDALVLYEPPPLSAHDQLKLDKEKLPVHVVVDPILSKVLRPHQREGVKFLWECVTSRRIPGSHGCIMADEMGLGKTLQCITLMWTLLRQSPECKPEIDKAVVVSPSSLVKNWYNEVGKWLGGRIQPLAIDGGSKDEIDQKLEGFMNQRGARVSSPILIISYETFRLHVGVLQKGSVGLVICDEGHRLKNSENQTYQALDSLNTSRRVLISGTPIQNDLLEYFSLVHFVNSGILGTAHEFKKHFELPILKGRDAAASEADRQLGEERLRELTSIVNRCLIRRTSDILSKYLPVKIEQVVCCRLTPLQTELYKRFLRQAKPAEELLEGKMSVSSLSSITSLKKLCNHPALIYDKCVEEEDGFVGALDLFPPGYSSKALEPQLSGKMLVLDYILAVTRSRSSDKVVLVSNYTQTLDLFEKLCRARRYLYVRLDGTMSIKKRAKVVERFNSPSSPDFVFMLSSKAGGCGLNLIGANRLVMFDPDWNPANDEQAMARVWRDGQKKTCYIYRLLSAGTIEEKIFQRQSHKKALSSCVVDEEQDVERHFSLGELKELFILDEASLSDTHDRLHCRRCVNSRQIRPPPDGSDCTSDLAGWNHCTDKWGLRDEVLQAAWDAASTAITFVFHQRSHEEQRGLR

[9] = cytotoxicity toward NIH3T3 fibroblasts, dose response, counter-screen, cell-based, ATP luminescence, mouse fibroblasts (AID 2010); type: functional;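 also: cells exposed to compound for about 90 hours before reading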
[10] = inhibitors of intracellular T. cruzi replication, confirmation, NIH3T3 host cells, beta-gal luminescence (AID 2044); type: functional, cell-based;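 also: intracellular parasites grown in NIH/3T3 mouse fibroblasts as host cells; luminescent beta-galactosidase reporter signal from transgenic T. cruzi replicating inside host cells; inhibitors lower the luminescence signal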
Vero = assay: cells; type: functional; conditions: Chlorocebus sabaeus
[11] = cytotoxicity in MIN6 insulinoma cells, dose response, cytotoxicity control, cell-based, mouse insulinoma (AID 2122); type: functional;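 also: confirmatory high-throughput counterscreen run to flag cytotoxic compounds; mouse MIN-6 beta cells carrying an insulin promoter eGFP reporter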
[12] = insulin promoter down-regulators in MIN6 cells, imaging, high-content screening, mouse beta cells (AID 1628); type: functional
[13] = A549 cell cytotoxicity, dose response, cytotoxicity control, plate reader, cherry-pick, antagonist series (AID 743412); type: functional, cell-based
A-375 [14] = assay: MITF: Counter assay: A375 proliferation Measured in Cell-Based System Using Plate Reader - 2084-03_Inhibitor_Dose_DryPowder_Activity. [Related pubchem assays (depositor defined):AID488944]; type: functional; conditions: Homo sapiens
[15] = HEK293 cell cytotoxicity, dose response, cytotoxicity control, plate reader, cherry-picked samples (AID 743446); type: functional, cell-based
[16] = target: T6, Microphthalmia-associated transcription factor (Homo sapiens, UniProt O75030); assay: TRPM1 promoter luciferase signal decrease, dose response, MITF inhibitor project, cell-based, SK-MEL-5, cherry-picked, set 3 (AID 493073); type: functional
T6 sequence (O75030 whole entry): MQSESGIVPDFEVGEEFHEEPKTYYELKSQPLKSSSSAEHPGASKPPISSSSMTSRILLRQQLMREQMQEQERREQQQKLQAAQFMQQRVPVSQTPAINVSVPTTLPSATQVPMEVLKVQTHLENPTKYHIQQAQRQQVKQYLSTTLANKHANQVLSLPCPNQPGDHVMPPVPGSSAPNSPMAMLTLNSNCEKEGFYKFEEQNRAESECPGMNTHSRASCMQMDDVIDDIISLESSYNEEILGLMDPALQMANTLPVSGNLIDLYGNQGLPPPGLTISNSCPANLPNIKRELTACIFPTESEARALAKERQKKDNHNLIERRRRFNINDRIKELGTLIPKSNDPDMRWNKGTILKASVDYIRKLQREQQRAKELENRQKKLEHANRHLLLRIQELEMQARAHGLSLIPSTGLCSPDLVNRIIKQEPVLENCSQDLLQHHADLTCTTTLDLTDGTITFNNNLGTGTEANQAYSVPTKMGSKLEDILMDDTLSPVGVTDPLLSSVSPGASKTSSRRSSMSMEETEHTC

[17] = LGR2 antagonists, dose response, cell-based, HEK293, CRE-luciferase reporter, cherry pick, set 2 (AID 743343); type: functional;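 also: transfected cells were stimulated with diluted bursicon conditioned medium after compound addition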
[18] = MC4R antagonists, dose response, counter-screen for LGR2 antagonist project, cell-based, plate reader, cherry pick (AID 743444); type: functional;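 also: transfected HEK 293 cells stimulated with alpha-MSH peptide; potency of inhibitors of the alpha-MSH evoked signal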
Beta-galactosidase = Beta-galactosidase (Escherichia coli, UniProt Q8VNN2); assay: PubChem AID 485352; type: functional
[19] = target: Type-1 angiotensin II receptor (Homo sapiens, UniProt P30556); assay: AT1 receptor antagonists, dose response, selectivity assay for APJ receptor antagonist project, cell-based, uHTS hits (AID 463214); type: functional;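 also: antagonist potency against angiotensin II stimulated AT1 response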
[20] = target: Induced myeloid leukemia cell differentiation protein Mcl-1 (Homo sapiens, UniProt Q07820); type: functional
Genome polyprotein = Genome polyprotein (Hepatitis C virus, UniProt Q2Q167); assay: HCV core protein dimerization inhibitors, dose response, biochemical, TR-FRET (AID 2159); parameters: species or system Hepacivirus hominis;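 also: blocks dimerization of HCV core protein measured by TR-FRET between tagged core106 pairs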
SUMO-activating enzyme [21] = target: T7, SUMO-activating enzyme (Homo sapiens, UniProt Q9UBT2); assay: SUMOylation inhibitor hit validation, confirmation, SUMOylation inhibitor project, biochemical, AlphaScreen (AID 2018); type: functional
[22] = target: Eukaryotic translation initiation factor 4E (Mus musculus, UniProt P63073); assay: eIF4E–eIF4G protein interaction inhibitors, dose response, biochemical, TR-FRET (AID 855); type: functional;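 also: potency for disrupting eIF4E binding to eIF4GI seen as loss of FRET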
SUMO-activating enzyme [23] = target: T7, SUMO-activating enzyme; assay: inhibitors of in vitro SUMOylation cascade, primary screen, biochemical, HTRF, uHTS (AID 2006); type: protein-complex assay
Cytochrome P450 2C9 = Cytochrome P450 2C9 (Homo sapiens, UniProt P11712)
A-375 [24] = assay: A375 melanoma cell viability reduction, dose response, counter-screen for MITF modulator project, cherry-pick samples, set 2 (AID 540335); type: functional, cell-based; conditions: Homo sapiens

T2 sequence (P09923 whole entry): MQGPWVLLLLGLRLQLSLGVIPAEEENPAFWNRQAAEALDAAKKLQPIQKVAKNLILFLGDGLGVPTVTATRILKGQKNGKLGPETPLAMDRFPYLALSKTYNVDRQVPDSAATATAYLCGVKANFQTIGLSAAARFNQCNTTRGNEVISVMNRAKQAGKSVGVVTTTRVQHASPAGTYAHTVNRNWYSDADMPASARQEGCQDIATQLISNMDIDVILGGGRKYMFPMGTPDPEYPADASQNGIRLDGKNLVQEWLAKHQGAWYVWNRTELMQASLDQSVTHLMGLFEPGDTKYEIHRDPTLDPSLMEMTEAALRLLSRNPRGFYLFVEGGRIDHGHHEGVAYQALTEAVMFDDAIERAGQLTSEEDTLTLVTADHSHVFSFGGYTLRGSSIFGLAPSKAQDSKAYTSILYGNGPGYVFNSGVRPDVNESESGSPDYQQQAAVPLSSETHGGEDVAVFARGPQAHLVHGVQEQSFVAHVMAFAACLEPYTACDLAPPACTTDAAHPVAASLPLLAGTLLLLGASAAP
T7 sequence (Q9UBE0 whole entry): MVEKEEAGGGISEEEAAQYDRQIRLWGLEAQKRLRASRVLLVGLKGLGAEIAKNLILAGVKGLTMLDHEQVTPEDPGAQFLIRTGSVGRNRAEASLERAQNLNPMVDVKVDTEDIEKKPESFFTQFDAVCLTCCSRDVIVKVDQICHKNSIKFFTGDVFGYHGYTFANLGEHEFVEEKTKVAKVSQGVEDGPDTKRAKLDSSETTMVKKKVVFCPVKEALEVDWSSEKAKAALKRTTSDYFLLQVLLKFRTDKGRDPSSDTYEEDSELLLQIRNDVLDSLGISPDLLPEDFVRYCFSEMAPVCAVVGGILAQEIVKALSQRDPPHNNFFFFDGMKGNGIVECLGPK
T7 sequence (Q9UBT2 whole entry): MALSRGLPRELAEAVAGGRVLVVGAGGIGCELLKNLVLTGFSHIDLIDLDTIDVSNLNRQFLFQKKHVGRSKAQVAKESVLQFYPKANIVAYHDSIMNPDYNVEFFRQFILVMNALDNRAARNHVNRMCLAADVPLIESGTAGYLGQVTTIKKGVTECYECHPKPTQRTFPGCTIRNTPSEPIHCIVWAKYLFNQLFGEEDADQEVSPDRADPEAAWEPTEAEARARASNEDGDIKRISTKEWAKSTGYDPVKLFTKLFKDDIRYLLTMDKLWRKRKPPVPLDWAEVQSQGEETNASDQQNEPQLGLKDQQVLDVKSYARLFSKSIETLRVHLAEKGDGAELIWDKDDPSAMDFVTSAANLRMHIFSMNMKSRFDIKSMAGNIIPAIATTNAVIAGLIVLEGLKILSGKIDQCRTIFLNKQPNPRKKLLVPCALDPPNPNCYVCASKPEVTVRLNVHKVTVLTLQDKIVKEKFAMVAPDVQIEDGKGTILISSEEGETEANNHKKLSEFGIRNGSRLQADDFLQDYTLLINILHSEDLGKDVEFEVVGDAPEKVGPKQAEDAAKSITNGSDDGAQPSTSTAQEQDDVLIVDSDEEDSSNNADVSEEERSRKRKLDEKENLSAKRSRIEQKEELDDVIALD
Cytochrome P450 3A4, sequence (P08684 whole entry): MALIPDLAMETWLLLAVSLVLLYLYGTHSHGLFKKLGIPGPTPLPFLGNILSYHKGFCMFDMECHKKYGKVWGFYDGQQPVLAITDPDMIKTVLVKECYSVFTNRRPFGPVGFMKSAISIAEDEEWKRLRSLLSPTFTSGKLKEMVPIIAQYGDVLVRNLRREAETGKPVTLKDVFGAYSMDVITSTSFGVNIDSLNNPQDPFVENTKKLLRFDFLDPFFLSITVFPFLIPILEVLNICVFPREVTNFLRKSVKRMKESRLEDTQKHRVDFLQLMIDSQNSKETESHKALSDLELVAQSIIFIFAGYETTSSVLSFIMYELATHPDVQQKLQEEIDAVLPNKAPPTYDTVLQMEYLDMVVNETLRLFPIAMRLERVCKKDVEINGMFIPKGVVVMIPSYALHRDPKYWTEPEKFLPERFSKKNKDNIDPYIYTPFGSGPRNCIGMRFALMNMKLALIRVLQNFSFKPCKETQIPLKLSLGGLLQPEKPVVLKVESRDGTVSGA
Intestinal-type alkaline phosphatase (Mus musculus, UniProt P24822), sequence (P24822 whole entry): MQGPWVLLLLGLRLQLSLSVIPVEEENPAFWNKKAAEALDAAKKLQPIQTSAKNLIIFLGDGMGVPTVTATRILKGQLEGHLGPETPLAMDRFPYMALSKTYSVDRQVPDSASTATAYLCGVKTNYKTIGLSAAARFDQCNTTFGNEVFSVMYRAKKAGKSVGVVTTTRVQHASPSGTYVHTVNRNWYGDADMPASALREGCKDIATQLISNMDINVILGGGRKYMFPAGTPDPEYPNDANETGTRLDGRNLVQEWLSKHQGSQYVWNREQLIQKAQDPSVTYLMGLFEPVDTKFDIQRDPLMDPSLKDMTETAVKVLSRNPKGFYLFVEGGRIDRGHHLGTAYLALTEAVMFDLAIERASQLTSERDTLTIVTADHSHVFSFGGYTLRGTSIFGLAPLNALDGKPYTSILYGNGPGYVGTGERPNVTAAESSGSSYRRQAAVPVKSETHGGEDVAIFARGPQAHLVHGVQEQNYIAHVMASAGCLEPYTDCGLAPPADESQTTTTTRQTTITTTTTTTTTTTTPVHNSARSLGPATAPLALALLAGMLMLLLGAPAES
Cytochrome P450 2C9, sequence (P11712 whole entry): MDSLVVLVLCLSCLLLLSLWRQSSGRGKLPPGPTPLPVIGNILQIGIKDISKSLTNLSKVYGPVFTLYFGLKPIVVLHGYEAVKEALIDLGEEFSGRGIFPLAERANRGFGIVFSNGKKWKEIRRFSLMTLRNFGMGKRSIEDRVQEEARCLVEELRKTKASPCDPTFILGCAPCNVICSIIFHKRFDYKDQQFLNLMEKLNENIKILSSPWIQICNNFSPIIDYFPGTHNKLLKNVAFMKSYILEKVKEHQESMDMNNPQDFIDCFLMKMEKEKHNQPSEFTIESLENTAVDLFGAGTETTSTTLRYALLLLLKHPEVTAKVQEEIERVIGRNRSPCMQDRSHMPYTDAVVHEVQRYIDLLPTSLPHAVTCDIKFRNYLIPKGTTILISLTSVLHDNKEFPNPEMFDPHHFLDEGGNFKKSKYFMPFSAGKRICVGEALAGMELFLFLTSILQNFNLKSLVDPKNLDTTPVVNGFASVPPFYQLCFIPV
Induced myeloid leukemia cell differentiation protein Mcl-1, sequence (Q07820 whole entry): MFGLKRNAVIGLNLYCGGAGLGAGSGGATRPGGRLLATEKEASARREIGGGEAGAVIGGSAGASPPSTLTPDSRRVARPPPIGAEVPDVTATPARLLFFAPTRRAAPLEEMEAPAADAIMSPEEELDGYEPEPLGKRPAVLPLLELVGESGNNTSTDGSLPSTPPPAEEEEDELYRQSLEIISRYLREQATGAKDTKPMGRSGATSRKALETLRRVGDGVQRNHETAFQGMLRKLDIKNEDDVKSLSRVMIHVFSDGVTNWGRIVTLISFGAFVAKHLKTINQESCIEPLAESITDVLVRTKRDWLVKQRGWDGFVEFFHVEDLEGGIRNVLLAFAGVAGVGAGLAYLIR
Type-1 angiotensin II receptor, sequence (P30556 whole entry): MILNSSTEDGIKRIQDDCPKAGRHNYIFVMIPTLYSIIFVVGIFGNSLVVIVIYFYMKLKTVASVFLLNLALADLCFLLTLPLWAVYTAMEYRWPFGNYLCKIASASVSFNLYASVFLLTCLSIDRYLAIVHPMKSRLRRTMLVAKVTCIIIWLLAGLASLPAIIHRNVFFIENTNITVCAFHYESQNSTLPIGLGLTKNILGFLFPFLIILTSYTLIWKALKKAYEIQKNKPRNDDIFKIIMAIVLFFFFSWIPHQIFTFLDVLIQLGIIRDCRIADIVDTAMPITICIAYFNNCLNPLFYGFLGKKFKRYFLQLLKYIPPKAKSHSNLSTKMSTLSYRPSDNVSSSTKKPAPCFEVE
Beta-galactosidase, sequence (Q8VNN2 whole entry): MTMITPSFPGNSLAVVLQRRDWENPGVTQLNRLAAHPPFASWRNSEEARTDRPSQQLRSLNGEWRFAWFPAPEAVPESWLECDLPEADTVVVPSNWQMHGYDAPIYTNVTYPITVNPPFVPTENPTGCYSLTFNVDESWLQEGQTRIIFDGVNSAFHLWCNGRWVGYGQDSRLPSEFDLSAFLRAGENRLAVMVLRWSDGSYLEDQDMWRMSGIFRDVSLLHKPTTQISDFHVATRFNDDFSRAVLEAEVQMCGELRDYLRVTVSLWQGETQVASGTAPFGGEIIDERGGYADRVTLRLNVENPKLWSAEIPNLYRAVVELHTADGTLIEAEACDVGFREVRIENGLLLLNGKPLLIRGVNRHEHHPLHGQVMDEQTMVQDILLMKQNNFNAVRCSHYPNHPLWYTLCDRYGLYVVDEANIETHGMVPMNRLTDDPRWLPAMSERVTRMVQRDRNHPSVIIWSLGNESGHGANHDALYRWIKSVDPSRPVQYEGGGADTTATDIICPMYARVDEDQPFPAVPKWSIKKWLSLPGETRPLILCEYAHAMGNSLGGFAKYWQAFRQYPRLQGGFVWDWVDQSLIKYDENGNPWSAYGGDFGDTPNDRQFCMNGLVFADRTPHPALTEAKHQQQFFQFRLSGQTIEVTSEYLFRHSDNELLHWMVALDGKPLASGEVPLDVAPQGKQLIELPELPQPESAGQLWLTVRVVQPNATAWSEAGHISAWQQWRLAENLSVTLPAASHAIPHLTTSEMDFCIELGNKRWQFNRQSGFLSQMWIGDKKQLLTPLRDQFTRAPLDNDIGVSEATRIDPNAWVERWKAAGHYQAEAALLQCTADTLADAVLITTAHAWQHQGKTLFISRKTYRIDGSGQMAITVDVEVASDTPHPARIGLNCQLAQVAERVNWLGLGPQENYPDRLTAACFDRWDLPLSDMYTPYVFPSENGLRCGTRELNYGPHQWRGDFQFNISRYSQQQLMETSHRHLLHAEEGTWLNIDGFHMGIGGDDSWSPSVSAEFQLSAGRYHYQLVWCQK
Genome polyprotein, sequence (Q2Q167 whole entry): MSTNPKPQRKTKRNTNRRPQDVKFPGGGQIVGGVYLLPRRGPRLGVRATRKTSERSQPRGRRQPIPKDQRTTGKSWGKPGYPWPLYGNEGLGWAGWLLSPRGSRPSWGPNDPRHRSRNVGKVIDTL

Compound: COc1ccc(OC)c(-n2c(SCC(=O)N3CCc4ccccc43)nc3c(c2=O)SCC3)c1
- AC50 (Escherichia coli): 71.1 µM (active)

Compound: OC(c1nc2cc(F)ccc2[nH]1)C(O)c1nc2cc(F)ccc2[nH]1 (stereo not drawn)
- EC50 [1]: 9.85 µM (active)
- EC50 [2]: 9.13 µM (active)
- EC50 [3]: 4.97 µM (active)
- IC50 [4]: 58.5 µM (active)

Compound: CCOc1ccc(-c2nc(CSCC(=O)NC(C)CC)c(C)o2)cc1 (stereo not drawn)
- IC50 (HEK293 [5]): 74.6 µM (inactive)
- IC50 (Jurkat): > 80 µM (inactive)
- IC50 (HEK293 [6]): 35.7 µM (inactive)

Compound: O=C(c1ccccc1)c1c[nH]c(C(=O)NCCCN2CCOCC2)c1
- AC50 (Cytochrome P450 1A2): 25.1 µM (inconclusive)
- AC50 (Cytochrome P450 3A4): inconclusive
- AC50 (Cytochrome P450 2C19): 0.0355 µM (inconclusive)

Compound: CCCCN(CC)CCN=C(S)Nc1ccc2nc(N3CCN(C)CC3)cc(C)c2c1
- AC50 [7]: 5.01 µM (active)
- AC50 [8]: 22.5 µM (active)
- AC50 (Escherichia coli): 56 µM (active)
- EC50 [9]: 4.9 µM (active)
- EC50 [10]: 0.34 µM (active)

Compound: CC(C)Oc1ccc(CCC(=O)NNC(=S)NCc2ccccc2)cc1
- EC50 [1]: 21.1 µM (active)
- EC50 [2]: 21.8 µM (active)
- EC50 [3]: 18.8 µM (active)
- IC50 [4]: 60.3 µM (active)

Compound: Cc1cc(N2CCN(C)CC2)nc2ccc(NC(S)=NCCN3CCc4ccccc4C3)cc12
- AC50 [8]: 20.4 µM (active)
- CC50 (Vero): 15.9 µM (active)
- IC50 [11]: 4.81 µM (active)
- IC50 [12]: 4.64 µM (active)
- EC50 [9]: > 60 µM (not active)
- EC50 [10]: 0.683 µM (active)

Compound: CCCNC(=O)COC(=O)c1ccccc1C(=O)c1ccc(Cl)c([N+](=O)[O-])c1
- AC50 [13]: 7.32 µM (active)
- AC50 (A-375 [14]): 34.3 µM (active)
- AC50 [15]: 10.7 µM (active)
- AC50 [16]: 8.34 µM (active)
- AC50 [17]: 8.85 µM (active)
- AC50 [18]: 10.6 µM (active)

Compound: CN(C)CC(=O)c1ccc(-c2ccccc2)cc1
- EC50 (Beta-galactosidase): > 40 µM (inactive)
- IC50 [19]: > 40 µM (not active)

Compound: CC(=O)c1sc2nc(CSc3nnnn3-c3ccccc3)[nH]c(=O)c2c1C
- IC50 [20]: 1.71 µM (active)
- IC50 (Genome polyprotein): > 49.8 µM (not active)
- IC50 (SUMO-activating enzyme [21]): 6.5 µM (active)
- IC50 [22]: 50 µM (inactive)
- IC50 (SUMO-activating enzyme [23]): 27.9 µM (active)

Compound: COc1ccc2c(=O)c(-c3ccccc3)c(C)oc2c1
- AC50 (Cytochrome P450 2C9): 10 µM (inconclusive)
- AC50 (Cytochrome P450 3A4): inconclusive

Compound: O=C(COc1ccc(Cl)cc1Cl)Nc1ccccn1
- AC50 (A-375 [24]): 18.4 µM (active)
- AC50 [16]: 2.19 µM (active)

Reference: ChEMBL document CHEMBL1201862, “PubChem BioAssay data set” (2004)
